US20140205681A1, “HYDROGEN-BOND SURROGATE PEPTIDES AND PEPTIDOMIMETICS FOR p53 REACTIVATION” (New York University, priority 2013, published 2014)
Ends that are not written are not given here. * marks the point of attachment. A∗ = N-allylalanine, C=CCN[C@@H](C)C(=O)*; code X = not defined here

Assays:
UMSCC47 cells [1] = assay: Cell proliferation (MTT); assay type: cell-based, human; details: UMSCC47 cells; for effect on anti-proliferative efficacy of cis-platinum: 10 μM with cis-platinum 10 μM; for cell proliferation, single-agent: 10 μM, 24-72 hours
Description: (§1) Cell proliferation was assessed using the MTT reagent (Roche Molecular Biochemicals, Nutley, N.J.) to detect metabolic active cells. Absorbance was measured at 570 nm in the Spectra Max 190 ELISA reader (Molecular Devices, Sunnyvale, Calif.) after overnight incubation. For clonogenic survival, 200 cells per well were plated in complete growth media and allowed to grow until visible colonies were formed (14 days). Cell colonies were fixed with cold methanol, stained with 0.25% crystal violet in 25% methanol, washed, and air dried. For apoptosis, cells were harvested, washed with cold PBS, and co-stained with Annexin V and propidium iodide according to the manufacturer's protocol (ApoAlert Annexin V-FITC Apoptosis Kit; Clontech). Apoptotic cells were analyzed using BD FACS Calibur (BD Biosciences Corporation, Franklin Lakes, N.J.) at The Ohio State University Comprehensive Cancer Center Analytical Cytometry Core.

p53 [2] = assay: p53 transcriptional activity (Cignal p53 Firefly/Renilla luciferase reporter); assay type: cell-based, human; details: 24 hours; for p53 activity, increase: HPV-positive UMSCC47 cells, vs vehicle; for p53 activity, increase / p53 activity: 10 μM; for p53 activity: UMSCC74A (HPV-negative, p53 wildtype)
Description: Cells were transfected with 100 ng of Cignal p53 reporter (SABiosciences, Valencia, Calif.) using Lipofectamine 2000. Cignal p53 reporter contains tandem repeats of the p53 consensus transcriptional response element. After 48 hours, cells were washed with cold PBS, lysed in passive lysis buffer (Promega), and measured for Firefly/Renilla dual luciferase activities in a luminometer using the Dual-Light System (Applied Biosystems, Foster City, Calif.). […] to control for transfection efficiency. A modification to the protocol was used for compound treatment. UMSCC47 cells were transfected with 100 ng of Cignal p53 reporter. After 24 hours, cells were treated with vehicle, CH1iB (10 μM), cis-platinum (10 μM), or combination of CH1iB (10 μM) and cis-platinum (10 μM) and measured for Firefly/Renilla dual luciferase activities 24 hours post-treatment.

[3] = tested on: p300, p53, p21, miR-34a, miR-200c; assay: Quantitative real-time PCR of p300, p53, p21, miR-34a and miR-200c expression; assay type: cell-based, human; details: 10 μM, 24 hours; for expression of p300, p53, and p53-regulated genes: UMSCC74A
Description: Cells were extracted for total RNA using the TRIzol® reagent (Invitrogen) or TaqMan PreAmp Cells-to-CT kit (Applied Biosystems). Expression of p300, p53, p21, miR-34a and miR-200c were determined using the Applied Biosystems 7900HT Fast Real-Time PCR System with validated TaqMan gene expression assays (Applied Biosystems). p53, p300, and p21 expression were normalized to GADPH and miR-34a and miR-200c expression were normalized to RNU44 using the ΔΔCt method.

UMSCC47 cells [4] = assay: Clonogenic survival (crystal violet); assay type: cell-based, human; details: UMSCC47 cells, 10 μM each agent, 14 days, vs vehicle
Description: as §1

UMSCC74A cells = assay: Cell proliferation (MTT); assay type: cell-based, human; details: for cell proliferation, single-agent: HPV-negative UMSCC74A cells, 10 μM; for effect on efficacy of cis-platinum on proliferation: UMSCC74A cells, 10 μM with cis-platinum 10 μM
Description: as §1

HPV16 E6-p300 = target: T1, HPV16 E6-p300 (Homo sapiens, UniProt Q09472); assay: Immunoprecipitation of HPV16 E6-p300 association; assay type: cell-based; details: UMSCC47 cells, 10 μM, 24 hours
T1 construct: Cell lysates were extracted, immunoprecipitated with anti-p300 antibody, and immunoblotted with anti-E6 antibody; endogenous in cells; host or cells: UMSCC47 (HPV16-positive HNSCC)
Description: Cells were lysed with NP buffer [50 mM Tris (pH 8.0), 150 mM NaCl, 0.5% deoxycholate, 0.1% SDS, and 1.0% NP-40] containing 1× Protease Inhibitor Cocktail (Roche, Switzerland) at 4° C. with gentle rocking for 15 min. The supernatant was pre-cleared to block nonspecific binding with 50 μL protein A/G Agarose beads (Pierce Biotechnology) that had been pre-washed with NP buffer before use. Equal amounts of anti-E6 antibody (Abcam), anti-p300 antibody (Millipore), or IgG antibody (Cell Signaling) were added to the respective samples. After 4 hours incubation at 4° C., 50 μL pre-washed protein A/G-agarose beads were added to each tube and immunoprecipitation was performed by rocking overnight at 4° C. The immunoprecipitated complexes were washed with NP buffer and then eluted using 2×SDS sample buffer. Eluted sample and 10% of input were resolved by SDS-PAGE for Western blot analysis with anti-E6, anti-p300, or anti-V5 antibodies.

[5] = tested on: IMR90 (human normal fibroblasts); assay: Cell proliferation (MTT); assay type: cell-based; details: for effect on efficacy of cis-platinum on proliferation: IMR90 fibroblasts, 10 μM with cis-platinum 10 μM; for cell proliferation, single-agent: human normal IMR90 fibroblasts, 10 μM
Description: as §1

UMSCC47 cells [6] = assay: Apoptosis (Annexin V FACS); assay type: cell-based, human; details: 10 μM, 24 hours, vs vehicle
Description: as §1

p53 [7] = assay: Western blot of total and acetylated[K382] p53 levels; assay type: cell-based, human; details: 24 hours; for acetylated p53 levels / p53 accumulation / p53 levels: 10 μM; for p53 levels: UMSCC74A
Description: Whole cell lysates were mixed with Laemmli loading buffer, boiled, separated by SDS-PAGE, and transferred to a nitrocellulose membrane. Subsequently, immunoblot analyses were performed using antibodies specific to V5 (Invitrogen), p53 (sc-126, Santa Cruz Biotechnology, Santa Cruz, Calif.), or acetylated[[…]]-p53 (2525, Cell Signaling Technology). The signal was developed using the SuperSignal Western Blotting Kit (Pierce, Rockford, Ill.).

UMSCC47 cells [8] = assay: Tumorsphere formation; assay type: cell-based, human; details: UMSCC47 cells, 10 μM, 7 days, vs vehicle
Description: Cells were harvested and seeded in a serum-free defined medium consisting of KSF medium supplemented with epidermal growth factor, basic fibroblast growth factor, insulin, and hydrocortisone in low-attachment plates (Corning Incorporated, Corning, N.Y.) for tumorspheres. Tumorsphere formation efficiency was calculated as the number of tumorspheres ([…] in diameter) formed in 7 days divided by the original number of cells seeded. Tumorsphere diameter was measured using NIS-Elements software.

CH1 domain of p300 = CH1 domain of p300 (Homo sapiens, UniProt Q09472); details: competes with endogenous HIF-1α for p300; Henchey et al. 2010; cited from earlier work
[9] = UMSCC47 cells, 10 μM with cis-platinum 10 μM

T1 sequence (Q09472 whole entry): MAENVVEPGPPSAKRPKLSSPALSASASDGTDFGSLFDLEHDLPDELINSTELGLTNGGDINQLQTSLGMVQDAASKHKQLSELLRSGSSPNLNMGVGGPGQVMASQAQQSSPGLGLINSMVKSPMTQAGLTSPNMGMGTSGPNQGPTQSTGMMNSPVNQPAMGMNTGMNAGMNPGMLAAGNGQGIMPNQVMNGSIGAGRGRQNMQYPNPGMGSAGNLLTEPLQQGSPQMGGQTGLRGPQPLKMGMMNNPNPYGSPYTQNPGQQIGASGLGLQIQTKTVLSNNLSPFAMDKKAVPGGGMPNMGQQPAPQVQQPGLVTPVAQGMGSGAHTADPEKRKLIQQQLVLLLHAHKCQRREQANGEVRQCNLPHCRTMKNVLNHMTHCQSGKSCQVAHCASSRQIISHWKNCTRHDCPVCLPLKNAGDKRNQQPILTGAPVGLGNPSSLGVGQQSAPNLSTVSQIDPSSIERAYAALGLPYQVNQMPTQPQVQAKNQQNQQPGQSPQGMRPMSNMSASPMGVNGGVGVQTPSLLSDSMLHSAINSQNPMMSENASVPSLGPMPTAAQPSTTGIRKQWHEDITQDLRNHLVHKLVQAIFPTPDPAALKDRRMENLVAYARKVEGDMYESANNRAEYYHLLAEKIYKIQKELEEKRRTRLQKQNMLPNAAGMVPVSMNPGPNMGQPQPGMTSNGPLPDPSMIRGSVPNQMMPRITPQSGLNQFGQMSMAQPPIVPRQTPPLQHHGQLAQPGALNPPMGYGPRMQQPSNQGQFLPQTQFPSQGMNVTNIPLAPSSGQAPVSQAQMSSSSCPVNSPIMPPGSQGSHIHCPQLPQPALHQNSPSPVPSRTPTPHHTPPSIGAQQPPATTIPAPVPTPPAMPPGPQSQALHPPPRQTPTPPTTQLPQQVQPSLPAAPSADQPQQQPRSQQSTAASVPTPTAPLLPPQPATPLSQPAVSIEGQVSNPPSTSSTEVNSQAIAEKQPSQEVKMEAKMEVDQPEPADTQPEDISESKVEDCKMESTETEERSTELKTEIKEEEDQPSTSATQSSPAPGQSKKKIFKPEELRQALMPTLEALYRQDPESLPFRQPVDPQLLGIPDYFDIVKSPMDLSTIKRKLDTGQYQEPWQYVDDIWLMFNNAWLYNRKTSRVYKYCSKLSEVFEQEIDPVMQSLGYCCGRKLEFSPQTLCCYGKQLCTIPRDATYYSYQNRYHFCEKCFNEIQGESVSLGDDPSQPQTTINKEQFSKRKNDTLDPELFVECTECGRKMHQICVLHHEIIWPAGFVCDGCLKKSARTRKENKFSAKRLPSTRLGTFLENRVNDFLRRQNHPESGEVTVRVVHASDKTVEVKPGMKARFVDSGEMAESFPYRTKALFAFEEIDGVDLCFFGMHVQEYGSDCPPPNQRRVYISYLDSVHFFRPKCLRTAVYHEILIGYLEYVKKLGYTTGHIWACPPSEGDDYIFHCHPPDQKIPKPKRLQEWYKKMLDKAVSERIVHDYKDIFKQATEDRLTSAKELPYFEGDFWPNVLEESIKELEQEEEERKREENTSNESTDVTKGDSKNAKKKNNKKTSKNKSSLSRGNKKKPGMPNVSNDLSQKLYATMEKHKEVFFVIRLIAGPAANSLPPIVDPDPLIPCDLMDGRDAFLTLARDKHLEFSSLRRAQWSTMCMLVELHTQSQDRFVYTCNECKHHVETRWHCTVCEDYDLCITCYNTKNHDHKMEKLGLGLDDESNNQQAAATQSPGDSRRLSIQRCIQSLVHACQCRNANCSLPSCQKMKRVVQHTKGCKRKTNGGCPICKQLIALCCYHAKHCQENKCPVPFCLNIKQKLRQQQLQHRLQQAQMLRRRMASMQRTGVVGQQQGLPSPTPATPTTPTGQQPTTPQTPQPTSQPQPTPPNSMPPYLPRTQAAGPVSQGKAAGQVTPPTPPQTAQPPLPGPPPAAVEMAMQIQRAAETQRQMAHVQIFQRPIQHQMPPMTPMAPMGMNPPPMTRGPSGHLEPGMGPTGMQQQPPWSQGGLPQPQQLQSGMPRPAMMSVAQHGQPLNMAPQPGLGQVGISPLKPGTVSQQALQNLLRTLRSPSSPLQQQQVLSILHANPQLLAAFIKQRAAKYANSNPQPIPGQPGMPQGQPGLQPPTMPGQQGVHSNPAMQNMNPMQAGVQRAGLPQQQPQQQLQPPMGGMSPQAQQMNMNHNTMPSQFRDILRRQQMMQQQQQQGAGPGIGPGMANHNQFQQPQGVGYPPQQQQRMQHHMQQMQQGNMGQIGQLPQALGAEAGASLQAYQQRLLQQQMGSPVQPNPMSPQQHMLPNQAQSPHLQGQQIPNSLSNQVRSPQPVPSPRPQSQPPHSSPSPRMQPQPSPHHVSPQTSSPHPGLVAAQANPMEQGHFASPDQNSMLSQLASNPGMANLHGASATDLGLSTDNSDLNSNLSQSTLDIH
Chain of CH1 domain of p300 (Q09472 whole entry, the tested form may be a part): as the sequence (Q09472 whole entry) above

Substance	effect on anti-proliferative efficacy of cis-platinum (UMSCC47 cells [1])	cell proliferation, single-agent (UMSCC47 cells [1])	p53 activity, increase (p53 [2])	p21, miR-34a, and miR-200c expression ([3]; UMSCC47 cells)	expression of p300, p53, and p53-regulated genes [3]	clonogenic survival, reduction/inhibition (UMSCC47 cells [4]) [%]	cell proliferation, single-agent (UMSCC74A cells)	effect on efficacy of cis-platinum on proliferation (UMSCC74A cells)	association between E6 and p300 (HPV16 E6-p300)	effect of cis-platinum on p53 activity (p53 [2]; [9])	p53 activity (p53 [2])	effect on efficacy of cis-platinum on proliferation [5]	cell proliferation, single-agent [5]	apoptosis, enhanced by (UMSCC47 cells [6]) [%]	effect of cis-platinum on p53 accumulation and acetylation (p53 [7]; [9])	acetylated p53 levels (p53 [7]; UMSCC47 cells)	p53 accumulation (p53 [7]; UMSCC47 cells)	p53 levels (p53 [7])	tumorsphere formation, reduced by (UMSCC47 cells [8]) [%]	HIF-1α-mediated transcription of vascular endothelial growth factor (CH1 domain of p300)
XELA*RAADQ-NH2 [CH1iB-mut]	no effect	no effect	14%																	
XELA*RALDQ-NH2 [CH1iB]	potentiated	inhibited the proliferation	71%	modest but significant increase	unchanged	35	no effect	did not augment	reduced	potentiated	did not modulate	did not augment	no effect	353	potentiated	enhanced	enhanced	did not modulate	20	
XTAA*DCEYNAR ({code X-Thr-Ala-A∗}-DCEYNAR; staple (positions not given here); reading uncertain; also: HBS: 4-pentenoic acid, N-allylalanine, printed as XTAA*DCEYNAR) [CH1iA, hydrogen bond surrogate stabilized α-helical mimic of HIF-1α targeting site A of p300 CH1; X = 4-pentenoic acid, A* = N-allylalanine, reference compound]		inactive	no effect		unchanged		no effect	did not augment			did not modulate	did not augment	no effect			no effect	no effect	did not modulate		reduction
